In article PMC10041525, “New Dual Inhibitors of Bacterial Topoisomerases with Broad-Spectrum Antibacterial Activity and In Vivo Efficacy against Vancomycin-Intermediate Staphylococcus aureus” (Journal of Medicinal Chemistry, 2023):
≈ marks a conversion by molar mass, not a printed value. Where two headings read alike, the source gives them in different places.

Tested on: 100 A. baumannii strains (50 MDR, 50 non-MDR)
Experiment: MIC broth microdilution at IHMA Europe, panel of 100 strains
Format: cell-based
Conditions: for MIC / MIC50 / MIC90: Acinetobacter baumannii; for MIC50: read-out: MIC 50; for MIC90: read-out: MIC 90

With `CO/N=C(\C(=O)N[C@@H]1C(=O)N2C(C(=O)[O-])=C(C[N+]3(C)CCCC3)CS[C@H]12)c1csc(N)n1` [Cefepime, cefepime] the MIC (A. baumannii IHMA 1769782, Israel 2018, MDR, read-out: MIC) was > 32 µg/mL, the MIC (A. baumannii IHMA 1769910, Israel 2018, Non-MDR, read-out: MIC) was 8 µg/mL (≈ 16.6 µM) and the MIC (A. baumannii IHMA 1790317, Czech Republic 2018, Non-MDR, read-out: MIC) was 1 µg/mL (≈ 2.08 µM). For the same compound, the MIC (A. baumannii IHMA 1790916, Romania 2018, Non-MDR, read-out: MIC) was 0.5 µg/mL (≈ 1.04 µM), the MIC (A. baumannii IHMA 1791877, Israel 2018, MDR, read-out: MIC) was > 32 µg/mL and the MIC (A. baumannii IHMA 1792961, Jordan 2018, MDR, read-out: MIC) was > 32 µg/mL. For the same compound, the MIC (A. baumannii IHMA 1795669, Tunisia 2018, Non-MDR, read-out: MIC) was 4 µg/mL (≈ 8.32 µM), the MIC (A. baumannii IHMA 1814276, Lebanon 2018, MDR, read-out: MIC) was > 32 µg/mL and the MIC (A. baumannii IHMA 1815198, Kuwait 2018, MDR, read-out: MIC) was > 32 µg/mL. For the same compound, the MIC (A. baumannii IHMA 1815856, Israel 2018, MDR, read-out: MIC) was > 32 µg/mL, the MIC (A. baumannii IHMA 1829500, Georgia 2018, Non-MDR, read-out: MIC) was 1 µg/mL (≈ 2.08 µM) and the MIC (A. baumannii IHMA 1830924, United Kingdom 2018, Non-MDR, read-out: MIC) was 4 µg/mL (≈ 8.32 µM). The MIC (A. baumannii IHMA 1849819, Kuwait 2018, MDR, read-out: MIC) was > 32 µg/mL, the MIC (A. baumannii IHMA 1849829, Kuwait 2018, Non-MDR, read-out: MIC) was 1 µg/mL (≈ 2.08 µM) and the MIC (A. baumannii IHMA 1857118, Slovenia 2018, Non-MDR, read-out: MIC) was 1 µg/mL (≈ 2.08 µM). For the same compound, the MIC (A. baumannii IHMA 1863631, France 2018, Non-MDR, read-out: MIC) was 1 µg/mL (≈ 2.08 µM), the MIC (A. baumannii IHMA 1884428, Italy 2018, Non-MDR, read-out: MIC) was 1 µg/mL (≈ 2.08 µM) and the MIC (A. baumannii IHMA 1884990, Germany 2018, Non-MDR, read-out: MIC) was 1 µg/mL (≈ 2.08 µM). The MIC (A. baumannii IHMA 1900538, Turkey 2018, Non-MDR, read-out: MIC) was 0.5 µg/mL (≈ 1.04 µM), the MIC (A. baumannii IHMA 1913773, Kenya 2018, Non-MDR, read-out: MIC) was 1 µg/mL (≈ 2.08 µM) and the MIC (A. baumannii IHMA 1926285, Qatar 2018, Non-MDR, read-out: MIC) was ≤ 0.25 µg/mL. For the same compound, the MIC (A. baumannii IHMA 1926288, Qatar 2018, MDR, read-out: MIC) was 32 µg/mL (≈ 66.6 µM), the MIC (A. baumannii IHMA 1963732, Turkey 2019, MDR, read-out: MIC) was 32 µg/mL (≈ 66.6 µM) and the MIC (A. baumannii IHMA 1967860, Spain 2019, Non-MDR, read-out: MIC) was 4 µg/mL (≈ 8.32 µM). For the same compound, the MIC (A. baumannii IHMA 1971673, Latvia 2019, MDR, read-out: MIC) was > 32 µg/mL, the MIC (A. baumannii IHMA 1983151, Greece 2019, MDR, read-out: MIC) was 32 µg/mL (≈ 66.6 µM) and the MIC (A. baumannii IHMA 1984665, Lithuania 2019, MDR, read-out: MIC) was > 32 µg/mL. For the same compound, the MIC (A. baumannii IHMA 1986738, Turkey 2019, MDR, read-out: MIC) was > 32 µg/mL, the MIC (A. baumannii IHMA 1987162, Croatia 2019, MDR, read-out: MIC) was > 32 µg/mL and the MIC (A. baumannii IHMA 1993615, Turkey 2019, MDR, read-out: MIC) was > 32 µg/mL. For the same compound, the MIC (A. baumannii IHMA 1994284, Italy 2019, MDR, read-out: MIC) was 32 µg/mL (≈ 66.6 µM), the MIC (A. baumannii IHMA 1995161, Czech Republic 2019, Non-MDR, read-out: MIC) was 1 µg/mL (≈ 2.08 µM) and the MIC (A. baumannii IHMA 1997936, Morocco 2019, Non-MDR, read-out: MIC) was 1 µg/mL (≈ 2.08 µM). The MIC (A. baumannii IHMA 1999178, Belgium 2019, Non-MDR, read-out: MIC) was 1 µg/mL (≈ 2.08 µM), the MIC (A. baumannii IHMA 2003279, Turkey 2019, MDR, read-out: MIC) was > 32 µg/mL and the MIC (A. baumannii IHMA 2014931, South Africa 2019, Non-MDR, read-out: MIC) was 1 µg/mL (≈ 2.08 µM). The MIC (A. baumannii IHMA 2019315, Romania 2019, Non-MDR, read-out: MIC) was 0.5 µg/mL (≈ 1.04 µM), the MIC (A. baumannii IHMA 2020360, Croatia 2019, MDR, read-out: MIC) was 32 µg/mL (≈ 66.6 µM) and the MIC (A. baumannii IHMA 2031511, Greece 2019, Non-MDR, read-out: MIC) was 1 µg/mL (≈ 2.08 µM). The MIC (A. baumannii IHMA 2031524, Greece 2019, MDR, read-out: MIC) was > 32 µg/mL, the MIC (A. baumannii IHMA 2034657, Tunisia 2019, Non-MDR, read-out: MIC) was 1 µg/mL (≈ 2.08 µM) and the MIC (A. baumannii IHMA 2035089, Serbia 2019, MDR, read-out: MIC) was 32 µg/mL (≈ 66.6 µM). The MIC (A. baumannii IHMA 2035134, Serbia 2019, Non-MDR, read-out: MIC) was 1 µg/mL (≈ 2.08 µM), the MIC (A. baumannii IHMA 2038976, Hungary 2019, MDR, read-out: MIC) was 32 µg/mL (≈ 66.6 µM) and the MIC (A. baumannii IHMA 2051503, Serbia 2019, MDR, read-out: MIC) was > 32 µg/mL. For the same compound, the MIC (A. baumannii IHMA 2058329, Slovenia 2019, Non-MDR, read-out: MIC) was 1 µg/mL (≈ 2.08 µM), the MIC (A. baumannii IHMA 2065587, France 2019, Non-MDR, read-out: MIC) was 1 µg/mL (≈ 2.08 µM) and the MIC (A. baumannii IHMA 2099294, United Kingdom 2019, Non-MDR, read-out: MIC) was 4 µg/mL (≈ 8.32 µM). The MIC (A. baumannii IHMA 2129256, Qatar 2019, Non-MDR, read-out: MIC) was 1 µg/mL (≈ 2.08 µM), the MIC (A. baumannii IHMA 2154584, Israel 2020, MDR, read-out: MIC) was > 32 µg/mL and the MIC (A. baumannii IHMA 2155340, Kenya 2020, MDR, read-out: MIC) was > 32 µg/mL. The MIC (A. baumannii IHMA 2156634, Turkey 2020, MDR, read-out: MIC) was > 32 µg/mL, the MIC (A. baumannii IHMA 2156709, Turkey 2020, MDR, read-out: MIC) was > 32 µg/mL and the MIC (A. baumannii IHMA 2177232, Lithuania 2020, MDR, read-out: MIC) was 32 µg/mL (≈ 66.6 µM). For the same compound, the MIC (A. baumannii IHMA 2177489, Lithuania 2020, MDR, read-out: MIC) was > 32 µg/mL, the MIC (A. baumannii IHMA 2178574, Ukraine 2020, Non-MDR, read-out: MIC) was ≤ 0.25 µg/mL and the MIC (A. baumannii IHMA 2180134, Malaysia 2020, Non-MDR, read-out: MIC) was 1 µg/mL (≈ 2.08 µM). For the same compound, the MIC (A. baumannii IHMA 2180142, Malaysia 2020, MDR, read-out: MIC) was > 32 µg/mL, the MIC (A. baumannii IHMA 2181370, Morocco 2020, MDR, read-out: MIC) was > 32 µg/mL and the MIC (A. baumannii IHMA 2183849, Argentina 2020, Non-MDR, read-out: MIC) was 1 µg/mL (≈ 2.08 µM). The MIC (A. baumannii IHMA 2184382, Japan 2020, Non-MDR, read-out: MIC) was 1 µg/mL (≈ 2.08 µM), the MIC (A. baumannii IHMA 2193375, Venezuela 2020, MDR, read-out: MIC) was > 32 µg/mL and the MIC (A. baumannii IHMA 2193485, Venezuela 2020, Non-MDR, read-out: MIC) was 1 µg/mL (≈ 2.08 µM). For the same compound, the MIC (A. baumannii IHMA 2193607, Venezuela 2020, MDR, read-out: MIC) was > 32 µg/mL, the MIC (A. baumannii IHMA 2196914, South Africa 2020, MDR, read-out: MIC) was 32 µg/mL (≈ 66.6 µM) and the MIC (A. baumannii IHMA 2196959, South Africa 2020, MDR, read-out: MIC) was > 32 µg/mL. For the same compound, the MIC (A. baumannii IHMA 2203763, Spain 2020, MDR, read-out: MIC) was > 32 µg/mL, the MIC (A. baumannii IHMA 2205144, Korea, South 2020, MDR, read-out: MIC) was 32 µg/mL (≈ 66.6 µM) and the MIC (A. baumannii IHMA 2206459, Taiwan 2020, MDR, read-out: MIC) was > 32 µg/mL. The MIC (A. baumannii IHMA 2206507, Taiwan 2020, Non-MDR, read-out: MIC) was 0.5 µg/mL (≈ 1.04 µM), the MIC (A. baumannii IHMA 2215307, Hong Kong 2020, Non-MDR, read-out: MIC) was 1 µg/mL (≈ 2.08 µM) and the MIC (A. baumannii IHMA 2216586, Taiwan 2020, MDR, read-out: MIC) was 32 µg/mL (≈ 66.6 µM). The MIC (A. baumannii IHMA 2223200, Colombia 2020, Non-MDR, read-out: MIC) was 1 µg/mL (≈ 2.08 µM), the MIC (A. baumannii IHMA 2224017, Panama 2020, MDR, read-out: MIC) was 32 µg/mL (≈ 66.6 µM) and the MIC (A. baumannii IHMA 2224303, Panama 2020, Non-MDR, read-out: MIC) was 4 µg/mL (≈ 8.32 µM). The MIC (A. baumannii IHMA 2231797, Greece 2020, MDR, read-out: MIC) was > 32 µg/mL, the MIC (A. baumannii IHMA 2233099, Guatemala 2020, MDR, read-out: MIC) was > 32 µg/mL and the MIC (A. baumannii IHMA 2233430, Kazakhstan 2020, MDR, read-out: MIC) was > 32 µg/mL. For the same compound, the MIC (A. baumannii IHMA 2238964, Thailand 2020, MDR, read-out: MIC) was > 32 µg/mL, the MIC (A. baumannii IHMA 2239052, Thailand 2020, Non-MDR, read-out: MIC) was 0.5 µg/mL (≈ 1.04 µM) and the MIC (A. baumannii IHMA 2261633, Canada 2020, Non-MDR, read-out: MIC) was 0.5 µg/mL (≈ 1.04 µM). For the same compound, the MIC (A. baumannii IHMA 2274234, South Africa 2020, MDR, read-out: MIC) was 32 µg/mL (≈ 66.6 µM), the MIC (A. baumannii IHMA 2274364, South Africa 2020, MDR, read-out: MIC) was > 32 µg/mL and the MIC (A. baumannii IHMA 2275237, Chile 2020, Non-MDR, read-out: MIC) was 1 µg/mL (≈ 2.08 µM). For the same compound, the MIC (A. baumannii IHMA 2275751, Jordan 2020, MDR, read-out: MIC) was > 32 µg/mL, the MIC (A. baumannii IHMA 2316205, United States 2020, MDR, read-out: MIC) was > 32 µg/mL and the MIC (MDR n = 50, read-out: MAX (maximum MIC; all strains inhibited)) was > 32 µg/mL. The MIC50 (MDR n = 50) was > 32 µg/mL, the MIC90 (MDR n = 50) was > 32 µg/mL and the MIC (all isolates n = 100, read-out: MAX (maximum MIC; all strains inhibited)) was > 32 µg/mL. For the same compound, the MIC50 (all isolates n = 100) was 8 µg/mL (≈ 16.6 µM), the MIC90 (all isolates n = 100) was > 32 µg/mL and the MIC (all isolates n = 100, read-out: MIN (minimum MIC)) was ≤ 0.25 µg/mL. It also gave an MIC (non-MDR n = 50, read-out: MAX (maximum MIC)) of 8 µg/mL (≈ 16.6 µM), an MIC50 (non-MDR n = 50) of 1 µg/mL (≈ 2.08 µM) and an MIC90 (non-MDR n = 50) of 4 µg/mL (≈ 8.32 µM). The MIC (non-MDR n = 50, read-out: MIN (minimum MIC)) was ≤ 0.25 µg/mL, the “Percentage I” value (MDR n = 50) was 6% and the “Percentage S” value (MDR n = 50) was 0%. For the same compound, the “Percentage I” value (all n = 100, CLSI breakpoints) was 3%, the “Percentage R” value (all n = 100, CLSI breakpoints) was 47% and the “Percentage S” value (all n = 100, CLSI breakpoints) was 50%. For the same compound, the “Percentage I” value (non-MDR n = 50) was 0% and the “Percentage R” value (non-MDR n = 50) was 0%.
